Measurements published in the supplement of paper PMC11451515.

Legend:
Settings in all cases: 48 h
[1] = test system: NOMO1; assay: AUC of viability dose-response curve (% viability x log10 dose units); higher = less sensitive
Summary of the method: (§1)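 Library compounds in DMSO were applied for 48 h at 37°C at 11 threefold doses (47 μM to 0.79 nM) to medium-adapted leukemia cells in 1536-well plates holding 500 or 1000 cells/well. Luminescence from CellTiter-Glo One was normalised plate by plate against DMSO and cell-free wells. Area under the curve came from trapezoidal integration of a log-logistic fit, after scaling curves that rose above full viability and discarding those that failed quality control. The fit had four parameters and used log10 doses.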

[2] = test system: P12-Ichikawa; assay: as above
Summary of the method: as §1

[3] = test system: SEM cells; assay: as above
Summary of the method: as §1

[4] = test system: NOMO1; assay: cell viability relative to DMSO control; higher = less cytotoxic
Summary of the method: (§2)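 NOMO1, SEM and P12-Ichikawa leukemia cells spent at least four passages adapting to each medium before use. They were seeded at 500 cells/well (NOMO1, SEM) or 1000 cells/well (P12-Ichikawa) in 5 μl in 1536-well plates and pin-dosed with library compounds in DMSO at 11 threefold steps from 47 μM down to 0.79 nM. After 48 h at 37°C, CellTiter-Glo One luminescence was read. Viability is reported as a percentage of the DMSO wells on each plate, with cell-free wells as background.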

[5] = test system: P12-Ichikawa; assay: as above
Summary of the method: as §2

[6] = test system: SEM cells; assay: as above
Summary of the method: as §2

CC1(CN2CCC(n3c(=O)[nH]c4ccccc43)CC2)OCc2ccccc2-n2cccc21 (stereo unspecified)
AUC of viability dose-response curve
Settings	[1]	[2]	[3]
HPLM + 10% dialyzed FBS	397	470	455
RPMI 5 mM glucose + 10% FBS	452	469	449
RPMI 5 mM glucose + 10% dialyzed FBS	438	458	470

cell viability [%]
Settings	[4]	[5]	[6]
HPLM + 10% dialyzed FBS, 0.000781 µM	128	99.7	102
HPLM + 10% dialyzed FBS, 0.00234 µM	108	97.6	109
HPLM + 10% dialyzed FBS, 0.00702 µM	102	105	111
HPLM + 10% dialyzed FBS, 0.0211 µM	105	98.7	100
HPLM + 10% dialyzed FBS, 0.0632 µM	96.8	102	103
HPLM + 10% dialyzed FBS, 0.19 µM	105	104	100
HPLM + 10% dialyzed FBS, 0.569 µM	104	94.4	107
HPLM + 10% dialyzed FBS, 1.71 µM	108	99.9	105
HPLM + 10% dialyzed FBS, 5.12 µM	102	99	106
HPLM + 10% dialyzed FBS, 15.4 µM	59.3	99.6	68.1
HPLM + 10% dialyzed FBS, 46.1 µM	75.6	92.8	76.9
RPMI 5 mM glucose + 10% FBS, 0.000781 µM	86.7	96	88.6
RPMI 5 mM glucose + 10% FBS, 0.00234 µM	103	99.9	90.5
RPMI 5 mM glucose + 10% FBS, 0.00702 µM	95.4	93.1	89
RPMI 5 mM glucose + 10% FBS, 0.0211 µM	91.4	94.8	111
RPMI 5 mM glucose + 10% FBS, 0.0632 µM	104	98.3	106
RPMI 5 mM glucose + 10% FBS, 0.19 µM	107	98.5	95
RPMI 5 mM glucose + 10% FBS, 0.569 µM	91.3	106	103
RPMI 5 mM glucose + 10% FBS, 1.71 µM	96	109	100
RPMI 5 mM glucose + 10% FBS, 5.12 µM	92.5	102	94.8
RPMI 5 mM glucose + 10% FBS, 15.4 µM	87.8	96.8	79.3
RPMI 5 mM glucose + 10% FBS, 46.1 µM	84	87.9	66.8
RPMI 5 mM glucose + 10% dialyzed FBS, 0.000781 µM	105	94	106
RPMI 5 mM glucose + 10% dialyzed FBS, 0.00234 µM	111	92.5	81.4
RPMI 5 mM glucose + 10% dialyzed FBS, 0.00702 µM	103	96.4	97.6
RPMI 5 mM glucose + 10% dialyzed FBS, 0.0211 µM	93.2	97.2	105
RPMI 5 mM glucose + 10% dialyzed FBS, 0.0632 µM	96.7	97.7	113
RPMI 5 mM glucose + 10% dialyzed FBS, 0.19 µM	98.2	99.2	94
RPMI 5 mM glucose + 10% dialyzed FBS, 0.569 µM	95.9	94	121
RPMI 5 mM glucose + 10% dialyzed FBS, 1.71 µM	92.4	93.8	99.2
RPMI 5 mM glucose + 10% dialyzed FBS, 5.12 µM	90.9	98.7	105
RPMI 5 mM glucose + 10% dialyzed FBS, 15.4 µM	79.5	94.3	79.6
RPMI 5 mM glucose + 10% dialyzed FBS, 46.1 µM	68.5	98.5	96.9

ClC1=CC=C2N/C3=N/C(=O)CN3CC2=C1Cl
AUC of viability dose-response curve
Settings	[1]	[2]	[3]
HPLM + 10% dialyzed FBS	456	464	468
RPMI 5 mM glucose + 10% FBS	445	456	446
RPMI 5 mM glucose + 10% dialyzed FBS	410	452	456

cell viability [%]
Settings	[5]	[6]
HPLM + 10% dialyzed FBS, 0.000781 µM	120	123
HPLM + 10% dialyzed FBS, 0.00234 µM	122	124
HPLM + 10% dialyzed FBS, 0.00702 µM	126	120
HPLM + 10% dialyzed FBS, 0.0211 µM	130	134
HPLM + 10% dialyzed FBS, 0.0632 µM	115	126
HPLM + 10% dialyzed FBS, 0.19 µM	122	119
HPLM + 10% dialyzed FBS, 0.569 µM	118	132
HPLM + 10% dialyzed FBS, 1.71 µM	115	138
HPLM + 10% dialyzed FBS, 5.12 µM	114	125
HPLM + 10% dialyzed FBS, 15.4 µM	112	115
HPLM + 10% dialyzed FBS, 46.1 µM	82.2	105
RPMI 5 mM glucose + 10% dialyzed FBS, 0.000781 µM	125	–
RPMI 5 mM glucose + 10% dialyzed FBS, 0.00234 µM	119	–
RPMI 5 mM glucose + 10% dialyzed FBS, 0.00702 µM	130	–
RPMI 5 mM glucose + 10% dialyzed FBS, 0.0211 µM	117	–
RPMI 5 mM glucose + 10% dialyzed FBS, 0.0632 µM	124	–
RPMI 5 mM glucose + 10% dialyzed FBS, 0.19 µM	127	–
RPMI 5 mM glucose + 10% dialyzed FBS, 0.569 µM	118	–
RPMI 5 mM glucose + 10% dialyzed FBS, 1.71 µM	118	–
RPMI 5 mM glucose + 10% dialyzed FBS, 5.12 µM	107	–
RPMI 5 mM glucose + 10% dialyzed FBS, 15.4 µM	105	–
RPMI 5 mM glucose + 10% dialyzed FBS, 46.1 µM	68.7	–

CO[C@@]12[C@H](COC(N)=O)C/3=C(N1C[C@@H]4N[C@H]24)/C(=O)/C(=C(N)\C3=O)C
AUC of viability dose-response curve
Settings	[1]	[2]	[3]
HPLM + 10% dialyzed FBS	449	472	453
RPMI 5 mM glucose + 10% FBS	453	443	431
RPMI 5 mM glucose + 10% dialyzed FBS	446	419	435

cell viability [%]
Settings	HPLM + 10% dialyzed FBS	RPMI 5 mM glucose + 10% FBS	RPMI 5 mM glucose + 10% dialyzed FBS
[5], 0.000781 µM	117	–	–
[5], 0.00234 µM	123	–	–
[5], 0.00702 µM	125	–	–
[5], 0.0211 µM	126	–	–
[5], 0.0632 µM	119	–	–
[5], 0.19 µM	116	–	–
[5], 0.569 µM	112	–	–
[5], 1.71 µM	121	–	–
[5], 5.12 µM	118	–	–
[5], 15.4 µM	118	–	–
[5], 46.1 µM	99.2	–	–
[6], 0.000781 µM	123	91.7	131
[6], 0.00234 µM	123	97.2	121
[6], 0.00702 µM	123	90.7	124
[6], 0.0211 µM	114	96.2	112
[6], 0.0632 µM	115	90	121
[6], 0.19 µM	115	97.1	112
[6], 0.569 µM	125	75.5	116
[6], 1.71 µM	121	95.3	125
[6], 5.12 µM	95.7	86.5	118
[6], 15.4 µM	108	92.2	114
[6], 46.1 µM	81.7	74	85.3

COc1cc(CCc2cc(NC(=O)c3ccc(N4C[C@@H](C)N[C@@H](C)C4)cc3)n[nH]2)cc(OC)c1
AUC of viability dose-response curve
Settings	[1]	[2]	[3]
HPLM + 10% dialyzed FBS	442	448	333
RPMI 5 mM glucose + 10% FBS	466	435	319
RPMI 5 mM glucose + 10% dialyzed FBS	455	414	332

cell viability [%]
Settings	HPLM + 10% dialyzed FBS	RPMI 5 mM glucose + 10% FBS	RPMI 5 mM glucose + 10% dialyzed FBS
[5], 0.000781 µM	124	–	–
[5], 0.00234 µM	136	–	–
[5], 0.00702 µM	118	–	–
[5], 0.0211 µM	130	–	–
[5], 0.0632 µM	123	–	–
[5], 0.19 µM	121	–	–
[5], 0.569 µM	120	–	–
[5], 1.71 µM	119	–	–
[5], 5.12 µM	109	–	–
[5], 15.4 µM	107	–	–
[5], 46.1 µM	90	–	–
[6], 0.000781 µM	109	111	122
[6], 0.00234 µM	125	113	122
[6], 0.00702 µM	131	117	124
[6], 0.0211 µM	128	123	125
[6], 0.0632 µM	127	96.1	101
[6], 0.19 µM	52	47.8	52.1
[6], 0.569 µM	85.8	80.7	96.2
[6], 1.71 µM	77	66.2	87.7
[6], 5.12 µM	64.4	63.5	64.1
[6], 15.4 µM	29.8	29.7	31.6
[6], 46.1 µM	18	19.5	18.5
